Experimental data as given in patent publication US11661434B2, “Phosphate of platinum compound and preparation method therefor” (Beijing Showby Pharmaceutical Co., LTD., priority 2018, dated 2023).

Key:
[1] = hygroscopicity experiments of various salts; format: physicochemical; settings: 25° C. ± 1° C.
[2] = pH value of compound, salts and lyophilized preparations; format: physicochemical; settings: compound or its salts
Procedure: The solution was stirred for 10 min, and then stood for adsorption for 20 min, followed by filtering with a 0.22 μm microfiltration membrane, and then was placed into 2 ml vials. Each vial was filled with 1 ml of the solution, which was then lyophilized to obtain the product at the specification of 20 mg/vial. The product was a white loose block, with a pH value of 4.10.
(§1) 100) ml of water for injection was added at a low temperature (2-8° C.) to dissolve the compound, and 2.0 g of activated carbon for medicinal use was added. The solution was stirred for 10 min, and then stood for adsorption for 20 min, followed by filtering with a 0.22 μm microfiltration membrane, and then was placed into 2 ml vials. Each vial was filled with 1 ml of the solution, which was then lyophilized to obtain the product at the specification of 100 mg/vial.
as §1, with “100” for “100)”, “sodium dihydrogen phosphate-disodium hydrogen phosphate buffer (pH of 6.0)” for “water for injection”, “0.5” for “2.0”, “200” for “100”

[3] = known platinum drugs; cited from earlier work
[4] = relative humidity 44% ± 2%, 1 h
[5] = relative humidity 44% ± 2%, 24 h
[6] = relative humidity 69% ± 2%, 1 h
[7] = relative humidity 69% ± 2%, 24 h

SMILES | Hygroscopicity [1, 4] [%] | Status [1, 4] | Hygroscopicity [1, 5] [%] | Status [1, 5] | Hygroscopicity [1, 6] [%] | Status [1, 6] | Hygroscopicity [1, 7] [%] | Status [1, 7] | pH value [2] | solubility [3] [mg/mL]
CCN(CC)CCCCC1C(=O)[O][Pt]2([NH][C@@H]3CCCC[C@H]3[NH]2)[O]C1=O.O=C(O)/C=C/C(=O)O (stereo partly shown) [Fumarate salt] | 5.87 | Viscous | 10.83 | Semi- | 6.83 | Viscous | 13.90 | Semi- | – | –
CCN(CC)CCCCC1C(=O)[O][Pt][O]C1=O.N[C@@H]1CCCC[C@H]1N [Example 1, (4-diethylamino)butylmalonato-(1R,2R)-(−)-1,2-cyclohexanediamine platinum(II)] | – | – | – | – | – | – | – | – | greater than 10 | –
N.N.O=C([O-])C1(C(=O)[O-])CCC1.[Pt+2] [carboplatin] | – | – | – | – | – | – | – | – | – | 17.8
CCN(CC)CCCCC1C(=O)[O][Pt]2([NH][C@@H]3CCCC[C@H]3[NH]2)[O]C1=O.CS(=O)(=O)O (stereo partly drawn) [Mesylate salt, 2-(4-diethylamino)butylmalonato-(1R,2R)-(−)-1,2-cyclohexanediamine platinum(II) mesylate] | 4.98 | Viscous | 9.89 | Light gray | 6.37 | Viscous | 13.89 | Light gray | – | –
CCN(CC)CCCCC1C(=O)[O][Pt]2([NH][C@@H]3CCCC[C@H]3[NH]2)[O]C1=O.O=C(O)[C@H](O)[C@@H](O)C(=O)O (stereo partly drawn) [L(+) tartrate salt, 2-(4-diethylamino)butylmalonato-(1R,2R)-(−)-1,2-cyclohexanediamine platinum(II) L-(+) tartrate] | 4.88 | Viscous | 9.76 | Light gray | 5.78 | Viscous | 12.79 | Light | – | –
CCN(CC)CCCCC1C(=O)[O][Pt]2([NH][C@@H]3CCCC[C@H]3[NH]2)[O]C1=O.Cc1ccc(S(=O)(=O)O)cc1 (stereo partly drawn) [Tosylate salt, 2-(4-diethylamino)butylmalonato-(1R,2R)-(−)-1,2-cyclohexanediamine platinum(II) tosylate] | 4.56 | Viscous | 8.78 | Light | 5.30 | Viscous | 9.86 | Light | – | –
